For 49 molecules, Ki results are on record in ChEMBL document CHEMBL1138679, “Three-dimensional quantitative structure-activity relationship analysis of a set of Plasmodium falciparum dihydrofolate reductase inhibitors using a pharmacophore generation approach” (J Med Chem, 2004).

A word on the Ki: it is a dissociation constant, usually derived from enzyme kinetics or from competition with a known ligand.

Molecules are shown by their SMILES.

Bifunctional dihydrofolate reductase-thymidylate synthase, sequence (P13922 whole entry): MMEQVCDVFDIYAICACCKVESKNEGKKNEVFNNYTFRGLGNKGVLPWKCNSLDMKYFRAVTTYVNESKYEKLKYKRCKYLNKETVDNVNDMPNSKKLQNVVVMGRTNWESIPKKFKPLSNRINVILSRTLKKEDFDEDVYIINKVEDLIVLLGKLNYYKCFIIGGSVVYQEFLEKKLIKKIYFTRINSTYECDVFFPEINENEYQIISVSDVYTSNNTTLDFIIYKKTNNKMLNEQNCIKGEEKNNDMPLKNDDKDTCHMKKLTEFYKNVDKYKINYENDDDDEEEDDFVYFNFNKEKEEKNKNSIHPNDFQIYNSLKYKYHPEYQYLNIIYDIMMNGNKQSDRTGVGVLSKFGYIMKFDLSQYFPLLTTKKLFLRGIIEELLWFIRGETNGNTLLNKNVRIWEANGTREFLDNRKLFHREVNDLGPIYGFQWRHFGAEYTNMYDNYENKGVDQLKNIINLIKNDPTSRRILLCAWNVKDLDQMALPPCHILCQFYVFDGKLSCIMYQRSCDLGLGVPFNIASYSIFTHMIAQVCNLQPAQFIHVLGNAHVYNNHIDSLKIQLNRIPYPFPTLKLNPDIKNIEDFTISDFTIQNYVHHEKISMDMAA

This experiment concerns the target Bifunctional dihydrofolate reductase-thymidylate synthase (Plasmodium falciparum K1, UniProt P13922). The experiment in a line: Inhibition constant against Plasmodium falciparum dihydrofolate reductase.
The molecule `CC1(C)N=C(N)N=C(N)N1OCCCOc1cc(Cl)c(Cl)cc1Cl` came in with a Ki of 1.1 nM.

Molecule `Cc1cc2nc3n(c2cc1C)C(C)(C)NC(N)=N3` returned a Ki of 180 nM.

For the molecule `N=C(NO)c1ccc(Oc2cc(Cl)cc(Cl)c2)c([N+](=O)[O-])c1`, the Ki is 1700 nM.

As to `Cc1nc(N)nc(N)c1-c1ccc(Cl)cc1`, the Ki was 0.84 nM. Against the preceding molecule, the Ki is about 2000-fold lower.

Molecule `COC(=O)CCCc1nc(N)nc(N)c1-c1ccccc1` came in with a Ki of 10 nM.

`Cc1nc(N)nc(N)c1-c1ccccc1` had a Ki of 110 nM.

For `Nc1ncc(-c2cccc(Cl)c2)c(N)n1`, the Ki was 75 nM.

`Nc1ncc(-c2ccccc2)c(N)n1` gave a Ki of 100 nM.

As to `Nc1nc(N)c(-c2ccc(Cl)cc2)c(CCCc2ccccc2)n1`, the inhibition constant (Ki) was determined as 0.74 nM.

For `CCc1nc(N)nc(N)c1-c1ccc(C)cc1`, the Ki came out at 1.1 nM. This Ki and that of the molecule before are within 1.5-fold of each other.

In turn, `CCc1nc(N)nc(N)c1-c1ccc(C(C)(C)C)cc1` had a Ki of 0.77 nM.

The molecule `Nc1nc(N)c(-c2cccc(Cl)c2)c(CCCc2ccccc2)n1` showed an inhibition constant (Ki) of 42 nM. This Ki is about 55-fold higher than that of the molecule before.

Regarding `Cc1nc(N)nc(N)c1-c1cccc(Cl)c1`, the Ki came out at 83 nM.

`CCc1nc(N)nc(N)c1-c1ccc(OCc2ccc(Cl)cc2Cl)c(OC)c1` returned a Ki of 9.6 nM.

As to `CCc1nc(N)nc(N)c1-c1ccccc1`, affinity was put at a Ki of 100 nM. This Ki is about 10-fold higher than that of the molecule before.

With `CCOc1c(Br)cc(-c2c(N)nc(N)nc2CC)cc1Br`, affinity was put at a Ki of 37 nM.

`CCc1nc(N)nc(N)c1-c1ccc(Cl)cc1Cl` had a Ki of 0.92 nM.

`Nc1nc(N)c(-c2cccc(Cl)c2)c(CCOCCCOc2ccccc2)n1` returned a Ki of 13 nM.

As for `COC(=O)CCCc1nc(N)nc(N)c1-c1ccc(Cl)cc1`, the affinity corresponds to a Ki of 0.14 nM.

Take `COc1ccc(CCCc2nc(N)nc(N)c2-c2cccc(Cl)c2)cc1`: the Ki was 11 nM.

`CCc1nc(N)nc(N)c1-c1cccc(Cl)c1` registered a Ki of 72 nM. Against the preceding molecule, the Ki is about 6.5-fold higher.

Consider `Nc1ncc(-c2ccc(Cl)cc2)c(N)n1`, for which the affinity corresponds to a Ki of 0.74 nM. Against the preceding molecule, the Ki is about 97-fold lower.

`CCc1nc(N)nc(N)c1-c1ccc(-c2ccccc2)cc1` had a Ki of 90 nM.

Molecule `CCc1nc(N)nc(N)c1-c1ccc(OC)cc1` gave a Ki of 1.3 nM.

The molecule `CCc1nc(N)nc(N)c1-c1ccc(Br)cc1` came in with a Ki of 0.84 nM.

In the case of `CCc1nc(N)nc(N)c1-c1cccc(OC)c1`, the affinity corresponds to a Ki of 36 nM.

Molecule `C/N=C(\S)NNC(=O)c1cccn(Cc2cccc(Cl)c2)c1=O` gave a Ki of 900 nM.

`Cc1[nH]c(N)cc2nc3ccccc3c1-2` came in with an inhibition constant (Ki) of 2300 nM. This Ki lies about 2.6-fold higher than the previous one.

In the case of `N/C(=N/O)c1ccc(Oc2c(Cl)cncc2Cl)cc1`, the inhibitory constant (Ki) came to 930 nM.

`CCCCCCc1nc(N)nc(N)c1-c1ccccc1` showed a Ki of 10 nM.

For `CCc1nc(N)nc(N)c1-c1ccc2c(c1)OCO2`, the Ki was 72 nM.

The molecule `CC1(C)N=C(N)N=C(N)N1c1ccc(Br)cc1` came in with a Ki of 1.2 nM.

`CC1(C)N=C(N)N=C(N)N1c1ccccc1` returned a Ki of 140 nM.

The molecule `CC1(C)N=C(N)N=C(N)N1c1ccc(F)cc1` yielded a Ki of 170 nM. The Ki values of the last two molecules are within 1.5-fold of each other.

`NC1=NCN(c2ccc(Cl)cc2)C(N)=N1` showed a Ki of 0.84 nM.

As to `NC1=NCN(c2ccccc2)C(N)=N1`, affinity was put at a Ki of 85 nM.

`NC1=NCN(c2ccc(F)cc2)C(N)=N1` came in with a Ki of 88 nM.

Regarding `N=C(S)N/N=C/c1ccc(Oc2ncc(C(F)(F)F)cc2Cl)cc1`, the affinity corresponds to a Ki of 9000 nM.

The molecule `N=C(NO)c1ccc(CNC(=O)c2ccc(Cl)cc2)cc1` showed a Ki of 1500 nM.

The molecule `NNc1nc2ccccc2nc1NN` showed a Ki of 8600 nM.

The molecule `N/C(=N\O)c1cccc(CS(=O)(=O)c2ccc(Cl)cc2)c1` yielded a Ki of 800 nM. This Ki is about 11-fold lower than that of the molecule before.

As for `C=CCNC(=S)NNC(=O)c1cccn(Cc2cccc(Cl)c2)c1=O`, the affinity, expressed as Ki, was 410 nM.

In the case of `COC(=O)c1sccc1-c1ccc(/C(C)=N/NC(N)=O)o1`, the inhibitory constant (Ki) is 20000 nM.

For the molecule `N/N=C(\S)Nc1ccc(OCc2ccccc2)cc1`, affinity was put at a Ki of 2000 nM.

In turn, `C/C(=N\N=C(/N)S)c1ccc(Oc2c(Cl)cncc2Cl)cc1` had a Ki of 1400 nM. This Ki and that of the molecule before are within 1.5-fold of each other.

In turn, `CC1(C)N=C(N)N=C(N)N1c1ccc(Cl)c(Cl)c1` [CHLORCYCLOGUANIL] gave a Ki of 1.1 nM.

`CC1(C)N=C(N)N=C(N)N1c1ccc(Cl)cc1` [CYCLOGUANIL]: the Ki was 1.1 nM.

`CCc1nc(N)nc(N)c1-c1ccc(Cl)c(Cl)c1` [ETOPRINE] showed an inhibition constant Ki of 0.79 nM.

In the case of `NC(=S)N/N=C/c1ccccc1` [PHENYLTHIOSEMICARBAZONE], the Ki stood at 31000 nM. This Ki is about 39000-fold higher than that of the molecule before.
